Key:
Experiment in all cases: relative viability (nuclei count vs DMSO), 5 days (fraction); higher = more cells survive
[1] = compound: COc1cc2ncn(-c3cc(OCc4ccccc4C(F)(F)F)c(C(N)=O)s3)c2cc1OC + CC(=O)Nc1cccc(-n2c(=O)n(C3CC3)c(=O)c3c(Nc4ccc(I)cc4F)n(C)c(=O)c(C)c32)c1 [Trametinib] (partner 0.02 µM)
Procedure, shortened: (§1)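 A single step with final 0.05% Triton X-100, 1% formaldehyde and 1 ug/ml Hoechst fixed the cells and stained nuclei 5 days after treatment. Lung cancer cell lines in 1536-well plates had been treated by pin tool the day after seeding with one drug alone or a fixed anchor-drug dose plus five library-drug doses (not always all listed) in √10 steps, and nuclei were counted on 4× images. Relative viability is the ratio of nuclei in treated wells to nuclei in vehicle wells, taken as the median of duplicate plates.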

[2] = compound: COc1cc2ncn(-c3cc(OCc4ccccc4C(F)(F)F)c(C(N)=O)s3)c2cc1OC + CS(=O)(=O)CCNCc1ccc(-c2ccc3ncnc(Nc4ccc(OCc5cccc(F)c5)c(Cl)c4)c3c2)o1 [Lapatinib] (partner 2 µM)
Procedure, shortened: as §1

[3] = compound: COc1cc2ncn(-c3cc(OCc4ccccc4C(F)(F)F)c(C(N)=O)s3)c2cc1OC + N=C(N)NC(=N)NCCc1ccccc1 [Phenformin] (partner 250 µM)
Procedure, shortened: as §1

[4] = compound: COc1cc2ncn(-c3cc(OCc4ccccc4C(F)(F)F)c(C(N)=O)s3)c2cc1OC + O=C(c1cc(Cc2n[nH]c(=O)c3ccccc23)ccc1F)N1CCN(C(=O)C2CC2)CC1 [Olaparib] (partner 8 µM)
Procedure, shortened: as §1

| Cell Line | relative viability ([1]; first compound 0.05 µM) | relative viability ([1]; first compound 0.1581 µM) | relative viability ([1]; first compound 0.5 µM) | relative viability ([1]; first compound 1.581 µM) | relative viability ([1]; first compound 5 µM) | relative viability ([2]; first compound 0.05 µM) | relative viability ([2]; first compound 0.1581 µM) | relative viability ([2]; first compound 0.5 µM) | relative viability ([2]; first compound 1.581 µM) | relative viability ([2]; first compound 5 µM) | relative viability ([3]; first compound 0.05 µM) | relative viability ([3]; first compound 0.1581 µM) | relative viability ([3]; first compound 0.5 µM) | relative viability ([3]; first compound 1.581 µM) | relative viability ([3]; first compound 5 µM) | relative viability ([4]; first compound 0.05 µM) | relative viability ([4]; first compound 0.1581 µM) | relative viability ([4]; first compound 0.5 µM) | relative viability ([4]; first compound 1.581 µM) | relative viability ([4]; first compound 5 µM) |
| --- | --- | --- | --- | --- | --- | --- | --- | --- | --- | --- | --- | --- | --- | --- | --- | --- | --- | --- | --- | --- |
| LU99A | 0.589 | 0.236 | 0.343 | 0.171 | 0.128 | 1 | 0.948 | 0.577 | 0.226 | 0.183 | 1.01 | 0.865 | 0.723 | 0.241 | 0.174 | 0.241 | 0.273 | 0.225 | 0.152 | 0.108 |
| HCC-366 | 0.114 | 0.35 | 0.12 | 0.0256 | 0.0157 | 1.11 | 1.02 | 0.359 | 0.0141 | 0.0131 | 0.612 | 0.534 | 0.301 | 0.0215 | 0.0222 | 0.204 | 0.273 | 0.0764 | 0.0193 | 0.0147 |
| EKVX | 0.36 | 0.307 | 0.365 | 0.173 | 0.201 | 0.176 | 0.265 | 0.206 | 0.165 | 0.178 | 0.236 | 0.151 | 0.188 |  | 0.197 | 0.888 | 0.934 | 0.631 | 0.206 | 0.222 |
| NCI-H522 | 0.654 | 0.748 | 0.657 | 0.673 | 0.335 |  |  |  |  |  | 0.741 | 0.581 | 0.612 | 0.484 | 0.404 | 0.51 | 0.714 | 0.621 | 0.517 | 0.337 |
| NCI-H1755 | 0.83 | 0.673 | 0.734 | 0.519 | 0.316 | 1.03 | 1.09 | 0.868 | 0.33 | 0.281 | 0.572 | 0.622 | 0.531 | 0.319 | 0.243 | 0.816 | 0.827 | 0.714 | 0.447 | 0.319 |
| NCI-H650 | 0.954 | 0.722 | 0.6 | 0.204 | 0.489 | 0.903 | 1.2 | 0.531 | 0.171 | 0.247 | 0.511 | 0.458 | 0.374 | 0.171 | 0.205 | 0.367 | 0.41 | 0.26 | 0.15 | 0.272 |
| LC-2-ad | 1.02 | 0.821 | 0.662 | 0.211 | 0.188 | 0.811 | 0.592 | 0.511 | 0.119 | 0.0933 | 0.527 | 0.578 | 0.313 | 0.274 | 0.316 | 0.431 | 0.593 | 0.466 | 0.173 | 0.176 |
| NCI-H1793 | 0.253 | 0.371 | 0.373 | 0.298 | 0.185 | 0.741 | 0.84 | 0.409 | 0.306 | 0.209 | 0.367 | 0.413 | 0.182 | 0.17 | 0.136 | 0.216 | 0.837 | 0.436 | 0.177 | 0.117 |

From the supplement of paper PMC10307832
